Source: US5281406A, “Recovery of C60 and C70 buckminsterfullerenes from carbon soot by supercritical fluid extraction and their separation by adsorption chromatography” (Analytical Bio-Chemistry Laboratories, Inc., priority 1992, dated 1994)
≈ marks a conversion by molar mass, not a printed value. Where “and” joins values, the source holds several entries; their conditions need not be identical. Equal values may be shown once.

Tests used:
[1] = Reported or stated solubility in single organic solvents (benzene, liquid toluene, organic solvents); format: physicochemical
[2] = stable to pressures up to; Yoo and Nellis, Science, 254, p. 1489, 1991; cited from earlier work
[3] = room temperature; cited from earlier work
[4] = Solubility of C60 and C70 fullerenes in methylene chloride/toluene mixtures; format: physicochemical
Text: The solubilities of C60 and C70 were established for the binary solvent system of toluene and methylene chloride using mixtures varying in composition from 100% to 0% of each component.

[5] = many organic solvents, several weeks; cited from earlier work
[6] = 0.0% CH2Cl2 / 100% toluene, duplicate samples 1 and 2
[7] = 25.0% CH2Cl2 / 75% toluene, duplicate samples 3 and 4
[8] = 50.0% CH2Cl2 / 50% toluene, duplicate samples 5 and 6
[9] = 75.0% CH2Cl2 / 25% toluene, duplicate samples 7 and 8
[10] = 100.0% CH2Cl2 / 0% toluene, duplicate samples 9 and 10

Structure (SMILES) | Solubility in organic solvents (in words) [1] | Reported stability to pressure [2] | Reported solubility in benzene [3] [µg/mL] | Solubility [4, 6] | Solubility [4, 7] [µg/mL] | Solubility [4, 8] | Solubility [4, 9] | Solubility [4, 10] | Stability in organic solvents (in words) [5]
c12c3c4c5c1c1c6c7c2c2c8c3c3c9c4c4c%10c5c5c1c1c6c6c%11c7c2c2c7c8c3c3c8c9c4c4c9c%10c5c5c1c1c6c6c%11c2c2c7c3c3c8c4c4c9c5c1c1c6c2c3c41 [C60, buckminsterfullerene] | very low solubility | up to 2.5×10^6 psi | 5000 | 3530 µg/mL and 3470 µg/mL | 2830 (≈ 3930 µM) | 1783 µg/mL and 1797 µg/mL | 895 µg/mL and 896 µg/mL | 556 µg/mL and 526 µg/mL | stable in many organic solvents for several weeks
c12c3c4c5c1c1c6c7c2c2c8c3c3c9c4c4c%10c5c5c1c1c6c6c%11c%12c%13c%14c%15c%16c%17c%14c%14c%18c%13c%11c1c1c5c%10c5c(c%14c%10c%17c%11c%13c%16c%14c%16c%15c%12c%12c%16c(c2c7c%126)c2c8c3c(c%13c%142)c2c9c4c5c%10c%112)c%181 [C70] | very low solubility |  |  | 611 µg/mL and 597 µg/mL | 500 (≈ 595 µM) | 328 µg/mL and 330 µg/mL | 184 µg/mL (≈ 219 µM) | 106 µg/mL and 95 µg/mL | 
